PubChem BioAssay (NCI)
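GI50 is the concentration that inhibits growth by half. The concentration for full growth arrest is given as TGI.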

Key:
Test in all cases: NCI-60 cell line screen, 384-well format
SN12C renal = tested on: SN12C renal
SF-268 CNS = tested on: SF-268 CNS
IGROV1 ovarian = tested on: IGROV1 ovarian
SNB-19 CNS = tested on: SNB-19 CNS
HL-60(TB) leukemia = tested on: HL-60(TB) leukemia
EKVX NSCLC = tested on: EKVX NSCLC
RXF 393 renal = tested on: RXF 393 renal
786-0 renal = tested on: 786-0 renal
LOX IMVI melanoma = tested on: LOX IMVI melanoma
UO-31 renal = tested on: UO-31 renal
HCT-15 colon = tested on: HCT-15 colon
MALME-3M melanoma = tested on: MALME-3M melanoma
SF-295 CNS = tested on: SF-295 CNS

For `CC(C)(O)C1CCC(Nc2ccc3ncc(-c4cccc(C(F)(F)F)c4)n3n2)CC1` (stereo unspecified), the GI50 (SN12C renal) was 1480 nM, the TGI (SN12C renal) was 5000 nM and the GI50 (SF-268 CNS) was 1510 nM. It also gave a TGI (SF-268 CNS) of 4440 nM, a GI50 (IGROV1 ovarian) of 1910 nM and a TGI (IGROV1 ovarian) of 5230 nM. The GI50 (SNB-19 CNS) was 1900 nM, the TGI (SNB-19 CNS) was 5500 nM and the GI50 (HL-60(TB) leukemia) was 641 nM. The TGI (HL-60(TB) leukemia) was 1880 nM, the GI50 (EKVX NSCLC) was 1670 nM and the TGI (EKVX NSCLC) was 5660 nM. For the same compound, the GI50 (RXF 393 renal) was 202 nM, the TGI (RXF 393 renal) was 616 nM and the GI50 (786-0 renal) was 554 nM. It also gave a TGI (786-0 renal) of 1900 nM, a GI50 (LOX IMVI melanoma) of 1400 nM and a TGI (LOX IMVI melanoma) of 2780 nM. The GI50 (UO-31 renal) was 2120 nM, the TGI (UO-31 renal) was 12400 nM and the GI50 (HCT-15 colon) was 1120 nM. The TGI (HCT-15 colon) was 2930 nM, the GI50 (MALME-3M melanoma) was 833 nM and the TGI (MALME-3M melanoma) was 2950 nM. It also gave a GI50 (SF-295 CNS) of 1050 nM and a TGI (SF-295 CNS) of 2400 nM.
